Usually Kd stands for a measure of binding affinity in units of concentration. The low end stands for tighter binding, the high end for weaker binding. The term koff denotes the first-order rate constant of dissociation. By kon is commonly meant the second-order rate constant of association. Higher therefore signals fast association.

Where no end group is shown, it is not given here.

Data on two substances can be found in patent US20240110004A1 (Northwestern University, priority 2022, published 2024).

The subject of one data set is C57BL/6J mice. The experiment in a line: Toxicity in WT C57BL/6J mice (CBC, serum chemistry, H&E pathology). In kind it is in vivo, mouse. Particulars: 3 mg/kg with respect to peptide, osmotic subcutaneous pump, 8 weeks, vs saline. The text has this:
FIG. 21: Optical micrographs for toxicity pathology analysis. H&E stained tissue; scale bar: 200 μm.
FIG. 22: Quantification of in vivo results from toxicity pathology analysis as depicted in FIG. 21. Left: pathology severity scoring of H&E stained tissue; Middle: red blood cell count; Right: white blood cell count.
FIG. 23A-23D: Quantification of in vivo results from toxicity pathology analysis as depicted in FIG. 21. FIG. 23A: represents hemoglobin count; FIG. 23B: total protein count; FIG. 23C: ALT (alanine transaminase) count; FIG. 23D: total bilirubin count.
Methods: To assess the toxicity of P1 at the administrable dose in healthy animals, as compared to HV3-TAT at its operating dose, and saline for the negative control, male C57BL/6J mice were assigned to 3 groups (n=3-4 per group) and administered via osmotic subcutaneous pump (Alzet) either HV3-TAT at 3 mg/kg, P1 at 3 mg/kg, all with respect to peptide concentration, or saline as a negative control for 8 weeks. Animals were checked weekly after drug administration for mortality. At sacrifice, blood was collected from each animal via cardiac puncture using a 25-gauge needle while under isoflurane, and then animals were sacrificed and major organs (brain, lung, heart, liver, spleen, spinal cord, and kidneys) collected, weighed, and stored in 10% buffered formalin followed by paraffin embedment.

The test system of a further data set is R6/2 mice. In words: mtHtt impact: mitochondrial VCP level and mtHtt aggregation in striatum. Type of data set: in vivo, mouse. Particulars: for VCP level on mitochondria of striatum: ATPB loading control; for mtHtt aggregation in striatum: compared to saline treated. The text has this:
FIG. 34A-34B: Quantification of mitochondrial studies. FIG. 34A depicts quantification of immunoblot results for VCP levels on mitochondrial fractions from striatal extracts of WT and R6/2 mice after treatment (immunoblot not shown). ATPB refers to ATP-ase β subunit. p-value for: WT veh as compared to R62 veh: <0.0001; WT+P1 as compared to R62 veh: <0.0001; R62 veh as compared to R62+HV3-TAT: 0.0001; R62 veh as compared to R62+P1: 0.0184; R62+P1 as compared to R62+HV3-TAT: 0.2663. FIG. 34B depicts quantification of mtHtt aggregation after EM48 staining (stains not shown). p-value for: R62 veh as compared to R62+HV3-TAT: 0.0491; R62 veh as compared to R62+P1: 0.0189; R62+P1 as compared to R62+HV3-TAT: 0.8765.
In vivo Efficacy Methods—mtHtt Impact: As the pathophysiological hallmark of HD, the formation of mtHtt aggregates can be observed in striatum of HD mouse models, like R6/2 mice. […] HV3 peptide blocks mtHtt-VCP binding, and inhibits VCP mitochondrial accumulation, which reduce behavioral and neuropathological phenotypes of HD. Mitochondrial level of VCP and mtHtt aggregation were examined to test whether PLP recapitulates the mechanism of HV3 peptide. Mitochondrial fractions of striatum were isolated from mice in each treatment group. Protein levels of VCP on mitochondria were analyzed by western blotting, using ATPB as a loading control for mitochondria. mtHtt aggregation was visualized by immunohistochemical staining by anti-mtHtt antibody.

Another data set addresses T1, VCP (Homo sapiens, UniProt P55072).
T1 construct: purchased Antibodies-online
The experiment in a line: Bio-layer interferometry (BLItz) binding to VCP. Here is the method:
FIG. 14A-14B: Biolayer Interferometry (BLItz) measurements from in vitro assay evaluating binding between P1 and VCP (FIG. 14A) and between HV3-TAT peptide and VCP (FIG. 14B). FIG. 14A: lines from top to bottom: 100 μM, 10 μM, and 750 nM. FIG. 14B: lines from top to bottom: 10 μM, 7.5 μM, 5 μM, and 1.25 μM.
BLI Methods: With cellular VCP engagement verified as discussed in Example 2 (and shown in FIG. 3B), P1 was further assessed for VCP binding via Bio-layer Interferometry (BLI) to further study the interaction compared to HV3-TAT peptide. Binding affinity was measured by using BLItz instrument. The anti-HIS sensor (HIS2) was hydrated before the installation. After the sensor installation to the BLItz instrument, histidine tagged VCP proteins (50 μg/ml in sodium acetate buffer at pH 6.5) were immobilized on the sensor. HV3-TAT and P1 were dissolved in Tris buffer (pH 8.4) with a range of concentrations. Using BLItz instrument, the dissociation constant (KD), on-rate (ka) and off-rate (kd) of each analyte were measured.
On the technique in general: BLI is a label-free optical method that tracks binding on a fibre tip over time.

For data set [1], the target named is T2, interaction between VCP and mtHtt (Homo sapiens, UniProt P55072).
T2 construct: GFP; expressed in transfected cells; host or cells: HEK293
T2 sequence (P55072 whole entry): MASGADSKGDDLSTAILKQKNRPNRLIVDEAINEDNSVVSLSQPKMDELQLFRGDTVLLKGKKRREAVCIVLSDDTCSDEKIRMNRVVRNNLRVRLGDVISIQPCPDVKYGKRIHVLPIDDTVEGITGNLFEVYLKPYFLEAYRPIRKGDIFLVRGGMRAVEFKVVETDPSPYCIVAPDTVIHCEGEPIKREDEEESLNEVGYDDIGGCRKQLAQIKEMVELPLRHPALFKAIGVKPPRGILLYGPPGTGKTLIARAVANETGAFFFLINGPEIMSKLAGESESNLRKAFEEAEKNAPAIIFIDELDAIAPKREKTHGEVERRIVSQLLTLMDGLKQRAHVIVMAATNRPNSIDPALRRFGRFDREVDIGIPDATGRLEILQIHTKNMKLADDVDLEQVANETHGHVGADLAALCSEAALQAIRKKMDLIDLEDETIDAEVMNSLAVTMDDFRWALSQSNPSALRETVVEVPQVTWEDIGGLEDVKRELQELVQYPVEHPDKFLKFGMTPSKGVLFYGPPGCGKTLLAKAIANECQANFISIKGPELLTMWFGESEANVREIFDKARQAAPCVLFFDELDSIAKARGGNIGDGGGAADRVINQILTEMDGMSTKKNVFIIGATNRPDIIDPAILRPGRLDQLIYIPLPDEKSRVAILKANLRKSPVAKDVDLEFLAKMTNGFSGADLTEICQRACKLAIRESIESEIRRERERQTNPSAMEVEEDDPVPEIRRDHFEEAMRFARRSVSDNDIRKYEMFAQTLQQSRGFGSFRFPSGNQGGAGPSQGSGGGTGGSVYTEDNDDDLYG
The experiment in a line: VCP binding assay: association of VCP to mtHtt by immunoprecipitation and western blot in HEK293 cells. Type of data set: cell-based. Particulars: HEK293 cells co-transfected with GFP-VCP and myc-Q73 FL, 3 μM, three doses. Here is the method: Therefore, target engagement protein binding assays were conducted. HEK293 cells were cultured and plated one day before treatment. Cells were pre-treated with HV3-TAT or PLPs at 3 μM for 2 h. Cells were then co-transfected with GFP-VCP and myc-Q73 FL plasmids. Cells were treated with a second dose of peptide or PLPs 6 hours after transfection, and a final third dose of peptide or PLPs treatment was administered 24 hours after transfection. Cell total lysate was harvested 48 hours after transfection, and to confirm binding of PLPs to VCP in cells, association of VCP to mtHtt was quantified by immunoprecipitation (IP) followed by western blot upon treatment of HV3-TAT peptide and PLPs.

The test system of another data set is HdhQ111 cells. In words: Cell viability in HdhQ111 cells after enzyme or serum pretreatment of the compounds. Type of data set: cell-based, mouse. Particulars: relative to compound without pretreatment, 3 μM with respect to peptide. The method, then: FIG. 10A-10B: Cell viability in HdhQ111 mouse striatal cells after enzyme pretreatment.
Each degradation experiment was repeated three times.
To verify that the PLPs retain bioactivity after being exposed to enzymes or serum treatments, the viability of HD mouse mutant striatal HdhQ111 cells was assessed following treatment with HV3-TAT and P1. […] Cells were maintained at 33° C. and 5% CO2 with a relative humidity of 95%. HdQ111 cells were plated in 96-well plates at a density of 5000 per well and then left to attach for 24 h. Cells were treated with HV3-TAT or PLPs at 3 μM with respect to peptide once a day, for 3 days. The medium was replaced every day. After 72 h, cells were washed 3 times with PBS buffer. At this point, 20 μL of CTB reagent in 80 uL of medium was added, and the cells incubated for 3 hours at 37° C. Fluorescence was measured at 590 nm with excitation at 560 nm using a Perkin Elmer EnSpire plate reader. The average background fluorescence of CTB in media without cells was subtracted from the average fluorescence readings of the experimental wells. Viability was calculated as the average background-subtracted signal in a well compared to that of a negative control well (treatment with vehicle or media). Three replicates were performed for each independent sample. 10% DMSO was used as a positive control and untreated cells in complete medium as a negative control. […]

Setting [2] is: bio-layer interferometry, VCP protein.

T1 sequence (P55072 whole entry, species assumed): as the sequence (P55072 whole entry) above

With “P1: PLP homopolymer having peptide side chains of SEQ ID: 1 (HVLVMSATRR), made by ROMP of norbornene peptide monomer M1 (also: side chains of polynorbornene homopolymer (PLP, ROMP of norbornene peptide monomer))”, in the data set with C57BL/6J mice, the “complete blood count (CBC) panel and serum chemical analysis” value is recorded as “no significant difference between groups”; the “pathology of H&E stained tissues” value is listed as “No pathological differences”. Further, in the data set with R6/2 mice, the “VCP level on mitochondria of striatum” value was “inhibited mitochondrial VCP accumulation to a lesser extent” and the “mtHtt aggregation in striatum” value is recorded as “inhibited mtHtt aggregation”. Moreover, the “decrease in dissociation constant compared to the HV3-TAT peptide” value with VCP (BLI, VCP) is listed as “more than 150 fold”. The “association of VCP to mtHtt (VCP binding)” value in data set [1] is given as “exhibited evidence for binding”. In the data set with HdhQ111 cells, the “cell viability after enzyme or serum pretreatment of the compound” value is recorded as “did not have any significant change in cell viability”.

Take “peptide sequence HVLVMCAT (HV3) coupled to the cell penetrating, HIV-derived TAT peptide [HV3-TAT, reference compound]”: in the data set with C57BL/6J mice, the “complete blood count (CBC) panel and serum chemical analysis” value is listed as “no significant difference between groups”; the “pathology of H&E stained tissues” value is “No pathological differences”. For the same substance, in the data set with R6/2 mice, the “VCP level on mitochondria of striatum” value is recorded as “blocked aberrant VCP mitochondrial translocation” and the “mtHtt aggregation in striatum” value is on record as “inhibited mtHtt aggregation”. Moreover, at VCP (BLI, VCP), the Kd is 14 µM. In addition, on VCP (setting [2]), the “koff” value stood at 0.023 s⁻¹ and the “kon” value was 1600 M⁻¹ s⁻¹. The “association of VCP to mtHtt (VCP binding)” value in data set [1] is “exhibited evidence for binding”. In addition, the “cell viability after enzyme or serum pretreatment of the compound” value with HdhQ111 cells was “significant decrease in cell viability”.
